Earlier results on one substance are cited in PMC11635053, “Development of a homotrimeric PSMA radioligand based on the NOTI chelating platform” (EJNMMI Radiopharmacy and Chemistry, 2024).

Read-outs that look alike come from different tables or passages of the source.

In data set [1] the test system is patients. To be noted: cited from earlier work; for Injected activity excreted: patients, ref Kurth et al. [2018].
The subject of data set [2] is LNCaP xenograft bearing mice. To be noted: 1 h p.i., ref Benešová et al. ([2015]); cited from earlier work.

Turning to [^177Lu]Lu-PSMA-617, the “Patients that may not respond to therapy” value in data set [1] (PSMA targeted radioligand therapy, ref Kratochwil et al. [2016]) is “more than 30%”. Moreover, the Injected activity excreted in data set [1] (by 12 h) is listed as approximately 70%. Further, the Injected activity excreted in data set [1] (within 4 h of administration) is 50%. In data set [2], the Kidney uptake is reported as 137.2 ± 77.8 % IA g^−1, the Liver uptake is 0.22 ± 0.08 % IA g^−1, the Tumor uptake was 11.20 ± 4.17 % IA g^−1 and the Tumor-to-kidney ratio is reported as 0.08. For the same substance, the Tumor-to-liver ratio in data set [2] is 50.91.
